Residues, ends and D or L forms follow the SMILES beside them.
Legend:
A2780 = assay: Determination of platinum in culture medium and cell pellet by atomic absorption spectrophotometry; format: cell-based, human; settings: 92 μM, 3 hours
Protocol: (§1) The cells to be examined, after the incubation period, were harvested, washed twice in buffered solution (PBS) and treated with 50 μl of 35% HNO3 for 16 hours. The platinum (Pt) contained in the culture medium or in the cell pellet was determined by spectrophotometer at atomic absorption (Analyst 800, Perkin-Elmer, Norwalk, Conn.) using the following criteria: temperature of pretreatment, 1300° C., temperature of atomizing 2200° C. 0.015 μg of palladium were used (palladium has been used for the modification of the matrix) and 0.01 μg of Mg (NO3)2 as a modifier of the matrix. The determinations were performed using a graphite furnace equipped with the correction system of the Zeeman effect. For the determination of the metal, tubes of pyrolytic graphite coated with THGA were used (Perkin-Elmer) with an integrated “vov-type platform” system. A standard solution of platinum in 2.5% HNO3 (Spectrascan) was used as a mother solution for the construction of a calibration curve with three points of reference. Each determination was performed independently, in triplicate (11).

A375 = assay: as above; format: cell-based, human; settings: 92 μM, 3 hours
Protocol: as §1

DU145 = assay: as above; format: cell-based, human; settings: 92 μM, 3 hours
Protocol: as §1

HUH-7 = assay: as above; format: cell-based, human; settings: 92 μM, 3 hours
Protocol: as §1

MCF-7 = assay: as above; format: cell-based, human; settings: 92 μM, 3 hours
Protocol: as §1

[1] = system: Human breast carcinoma MCF-7; assay: Cytotoxicity by LDH release (Cytotox 96); format: cell-based; settings: % of total LDH; for LDH release: 1.5 μM, 24 hr or 48 hr
Protocol: (§2) The leader peptide of 24 aa. […] The release of lactate dehydrogenase (LDH) was then measured quantitatively in the supernatant of the culture medium of the cells after 24 hr of incubation, using the Cytotox 96 non riadioactive cytotoxic assay kit in compliance with the technical indications provided by Promega. The experiments were performed in triplicate in an independent manner, using different preparations. (Table III)
(§3) After the incubation the amount of lactate dehydrogenase (LDH) released from cells into the supernatant was measured. This quantity was expressed as a percentage of the total LDH (released by cells in which cell lysis had been induced using a detergent). Approximately 3% of LDH was found in the culture medium of not treated cells.

A-2780 = assay: Cytotoxicity by LDH release (Cytotox 96); format: cell-based, human; settings: % of total LDH; for LDH release: 1.5 μM, 24 hr or 48 hr
Protocol: as §2, §3

HUT-7 Hepatocarcinoma = assay: Cytotoxicity by LDH release (Cytotox 96); format: cell-based, human; parameters: LDH μelease: dose or concentration left out as unconfirmed; settings: % of total LDH; for LDH release: 1.5 μM, 24 hr or 48 hr
Protocol: as §2, §3

MRC-5 = assay: Cytotoxicity by LDH release (Cytotox 96); format: cell-based, human; parameters: LDH μelease: dose or concentration left out as unconfirmed; settings: % of total LDH; for LDH release: 1.5 μM, 24 hr or 48 hr
Protocol: as §2, §3

PaTu Ca pancreatic = assay: Cytotoxicity by LDH release (Cytotox 96); format: cell-based, human; parameters: LDH μelease: dose or concentration left out as unconfirmed; settings: % of total LDH; for LDH release: 1.5 μM, 24 hr or 48 hr
Protocol: as §2, §3

[2] = system: tumor cells of human origin; assay: Immuno-histochemical assessment of internalization; format: cell-based; settings: text summary of Table II
Protocol: Subsequently, a cytospin was used to obtain a smear of cells on slides. The cells were then placed in Zamboni solution (4% paraformaldehyde, 15% picric acid) for 60 min and then washed with a solution of 1×PBS and incubated for 5 min with 3% hydrogen peroxide to suppress the action of endogenous peroxidase. The immuno-coloring was performed using the Dako LSA+System HRP kit (DAKO, CA, USA). The incubation lasted 30 minutes with primary antibody anti-peptide leader of 24 aa (1:200), produced in rabbits. This phase was followed by sequential method that requires a 30-min incubation with biotinylated antibody and peroxidase-labeled streptavidin. To complete the reaction of differentiation, a substrate-chromogen solution was engaged. Cell smears were colored with hematoxylin.
(§4) A positive reaction is represented by a brownish coloration. A blue coloration indicates negativity.
The immunocytochemical analysis was performed using a polyclonal antibody able to recognize the amino acid sequence of the peptide leader of rMnSOD (7), ie of 24 aa. among which there are also those that form the hexapeptide.
After incubation with these molecules, the cells were washed and treated with the polyclonal antibody for three hours at rt, and then the cells were washed with a solution of PBS [17, 18]. In control cells (not treated and those treated with the antibody alone), the reaction is negative. […]

[3] = Cytotoxicity by LDH release, summary over the cell lines; format: cell-based; settings: human
Human Normal Lymphocytes = assay: Lymphocyte penetration, immunocytochemistry / immunofluorescence; format: cell-based; settings: 3 hour incubation
Protocol: Human Normal Lymphocytes cells were collected from healthy donors and purified using Ficoll Hystopaque density gradient centrifugation. The cells were cultured at a density of 1×10^6 cells/mL in RPMI media supplemented with 1% Penstrep and 10% FBS in a humidified atmosphere containing 5% CO2 at 37° C.
(§5) A cytospin was used to smear cells onto slides. The smears were fixed in Zamboni solution (4% paraformaldehyde, 15% picric acid) for 60 minutes and then washed with 1×PBS and incubated for five minutes with 3% hydrogen peroxide to quench endogenous peroxidase activity. Immunostaining was performed using the DAKO LSA+System HRP kit. Rabbit anti-rMnSOD-Lp (1:200), was incubated on slides for 30 minutes, followed by incubation with the biotinylated secondary antibody for 30 minutes and peroxidase-labeled streptavidin for 30 minutes. To complete the reaction, a substrate-chromogen solution was used. The smears were counterstained with hematoxylin.

white blood cells = assay: White blood cell penetration, immunocytochemistry at light microscopy; format: cell-based, human; settings: healthy subject
Protocol: as §5, with “Lymphocytes were incubated for five hours in the presence of fluorescinated Hexapeptide 92 μM. A cytospin” for “A cytospin”

Jurkat cells = assay: Jurkat cell penetration, immunofluorescence; format: cell-based, human; settings: 92 μM, 3 h
Protocol: Jurkat cells (ATTC, UK) were seeded at density of 150000 cells/well in RPMI media supplemented with 1% Penstrep and 10% FBS in a humidified atmosphere containing 5% CO2 at 37°. The next day, the cells were incubated with 92 μM AVCGTG (SEQ ID NO. 1)-FITC for 3 h in multiwell 24. Subsequently, a cytospin was used to smear cells onto slides. The smears were fixed with 4% paraformaldehyde/PBS for 10 min and rinsed twice with 1×PBS containing 0.1% Triton to remove traces of fixative. Cell samples without AVCGTG (SEQ ID NO. 1)-FITC were used for the background control. After blocking solution with 5% NGS (Normal Goat Serum, VECTOR) 1×PBS+0,1% Triton X-100, was added for 30 minutes. After removing the blocking solution, cells were incubated with primary antibody hexapeptide, diluted 1:200 in blocking solution, overnight at 4° C. The following day, after washing with lx PBS and 0.1% Triton X-100 for 10 minutes, secondary antibody (ALEXA FLUO 488A, SANTACRUZ) diluted 1:400 with 1×PBS and 0.1% Triton X-100 for 2 h was added. The excess of antibody was removed with 3 washes with 1×PBS.
Nuclei were stained with DAPI (1 μg/mL). The slides were mounted and stored in the dark at 4° C. and then observed by fluorescence microscope ZEISS HB050 by using the software Axion Vision Re1.4.8.

cells = assay: Ability of hexapeptide conjugated to fluorescein to enter cells (immunocytochemistry); format: cell-based; settings: immunocytochemistry examination
Excerpt: The test results are positive and confirms the previous data.

[4] = system: Human breast cancer MCF-7; assay: Immuno-histochemical assessment of internalization (Ab anti-leader peptide 24 aa); format: cell-based; settings: 3 hours, 92 μM, positive = brownish coloration
Protocol: (§6) Subsequently, a cytospin was used to obtain a smear of cells on slides. […] The immuno-coloring was performed using the Dako LSA+System HRP kit (DAKO, CA, USA). The incubation lasted 30 minutes with primary antibody anti-peptide leader of 24 aa (1:200), produced in rabbits. This phase was followed by sequential method that requires a 30-min incubation with biotinylated antibody and peroxidase-labeled streptavidin. To complete the reaction of differentiation, a substrate-chromogen solution was engaged. Cell smears were colored with hematoxylin.
as §4
(§7) After incubation with these molecules, the cells were washed and treated with the polyclonal antibody for three hours at rt, and then the cells were washed with a solution of PBS [17, 18].

A-2780 Ovarian Ca = assay: as above; format: cell-based, human; settings: 3 hours, 92 μM, positive = brownish coloration
Protocol: as §6, §4, §7

A-375 Melanoma = assay: as above; format: cell-based, human; settings: 3 hours, 92 μM, positive = brownish coloration
Protocol: as §6, §4, §7

[5] = system: DU 145 Renal Cell Carcinoma; assay: as above; format: cell-based, human; settings: 3 hours, 92 μM, positive = brownish coloration
Protocol: as §6, §4, §7

HUH HCC = assay: as above; format: cell-based, human; settings: 3 hours, 92 μM, positive = brownish coloration
Protocol: as §6, §4, §7

Row | Molecule | Cellular uptake of Pt (A2780) [%] | Pt cell pellet (A2780) [µg/L] | Cellular uptake of Pt (A375) [%] | Pt cell pellet (A375) [µg/L] | Cellular uptake of Pt (DU145) [%] | Pt cell pellet (DU145) [µg/L] | Cellular uptake of Pt (HUH-7) [%] | Pt cell pellet (HUH-7) [µg/L] | Cellular uptake of Pt (MCF-7) [%] | Pt cell pellet (MCF-7) [µg/L] | LDH release [1] [%] | LDH release (A-2780) [%] | LDH release (HUT-7 Hepatocarcinoma) [%] | LDH release (MRC-5) [%] | LDH release (PaTu Ca pancreatic) [%] | reaction with polyclonal antibody against leader peptide of 24 aa [2] | internalization, reaction with Ab anti-peptide (24 aa) [4] | internalization, reaction with Ab anti-peptide (24 aa) (A-2780 Ovarian Ca) | internalization, reaction with Ab anti-peptide (24 aa) (A-375 Melanoma) | internalization, reaction with Ab anti-peptide (24 aa) [5] | also measured
1 | N.N.[Cl][Pt][Cl] [CC, cisplatin, reference compound] | 0.75 | 163 | 1.5 | 399.9 | 0.9 | 167.3 | 1.2 | 242.9 | 2.6 | 760 | 48 | 36 | 32 | 37 | 25 |  |  |  |  |  | 
2 | CC(C)[C@H](NC(=O)[C@H](C)N)C(=O)N[C@@H](CS)C(=O)NCC(=O)N[C@H](C(=O)NCC(=O)O)[C@@H](C)O [Hexapeptide, AVCGTG] (H-AVCGTG-OH; N-terminus assumed) |  |  |  |  |  |  |  |  |  |  |  |  |  |  |  | positive |  |  |  |  | LDH μelease ([1]; 1.5 mM): 5%; LDH μelease (A-2780; 1.5 mM): 5%; LDH μelease (HUT-7 Hepatocarcinoma): 4%; LDH μelease (MRC-5; not treated cells): 2%; LDH μelease (PaTu Ca pancreatic; not treated cells): 3%; mortality at 24 hr, 1.5 μM [3]: 2 to 5%; internalization in lymphocytes (Human Normal Lymphocytes): cytoplasmic internalization; penetration into white blood cells (white blood cells): positive; penetration into Jurkat cells (Jurkat cells): cytoplasmic internalization
3 | ACTGVG [reference compound] |  |  |  |  |  |  |  |  |  |  |  |  |  |  |  |  |  |  |  |  | penetration into the cells (cells): does not penetrate into the cells
4 | Lp-CC (AVCGTG) | 5.9 | 144 | 15.5 | 372 | 13.8 | 342.8 | 5.2 | 118.7 | 4.2 | 97 | 77 | 85 | 69 | 40 | 60 |  | positive | positive | positive | positive | internalization, reaction with Ab anti-peptide (24 aa) (HUH HCC): positive
5 | rMnSOd: recombinant form of LSA-type-MnSOD bearing the 24 amino acid leader peptide at the N-terminus (protein, UniProt P04179 1-222, looked up, full-length) MLSRAVCGTSRQLAPVLGYLGSRQKHSLPDLPYDYGALEPHINAQIMQLHHSKHHAAYVNNLNVTEEKYQEALAKGDVTAQIALQPALKFNGGGHINHSIFWTNLSPNGGGEPKGELLEAIKRDFGSFDKFKEKLTAASVGVQGSGWGWLGFNKERGHLQIAACPNQDPLQGTTGLIPLLGIDVWEHAYYLQYKNVRPDYLKAIWNVINWENVTERYMACKK |  |  |  |  |  |  |  |  |  |  |  |  |  |  |  | positive | positive | positive | positive | positive | internalization, reaction with Ab anti-peptide (24 aa) (HUH HCC): positive
